Results on 1 compound are retold here after patent publication US12728173B2, “Heptamethine cyanine near-infrared fluorescent dye, preparation method therefor and use thereof” (NANJING NUOYUAN MEDICAL DEVICES CO., LTD, priority 2024, dated 2026).

The nature of data set [1]: Subcutaneous HepG2 tumor-bearing mouse models for in vivo imaging. As to conditions: tail vein, 0.5 mg/kg. The procedure: Subcutaneous HepG2 Tumor-Bearing Mouse Models (Human-Derived Liver Cancer Cells) for In Vivo Imaging
Test samples: the heptamethine cyanine near-infrared fluorescent dyes provided by Examples 1-4, and the heptamethine cyanine near-infrared fluorescent dyes provided by Comparative Examples 1-3.
Testing method: The subcutaneous HepG2 tumor-bearing mouse models were subjected to tail vein administration of the above samples (0.5 mg/kg, 100 μL of glucose injection), respectively. Indocyanine green (0.5 mg/kg, 100 μL of glucose injection) was taken as a control. After the administration, fluorescence imaging was performed using a surgical fluorescence imaging system (NANJING NUOYUAN MEDICAL DEVICES CO., LTD, 10B), at 0 h (before administration), 6 h, 12 h, 24 h, and 48 h in sequence.

Another data set concerns tumor tissues. To be noted: prior art CN111196896A; cited from earlier work.

Turning to `CC1(C)C(/C=C/C2=C(Cl)C(=C/C=C3/N(CCCS(=O)(=O)O)c4ccccc4C3(C)C)/CCC2)=[N+](CCCS(=O)(=O)O)c2ccc(S(=O)(=O)O)cc21` [Comparative Example 1], the “hepatic accumulation and metabolism” value in data set [1] was “hepatic accumulation and non-metabolism”. In addition, in the data set with tumor tissues, the hepatic accumulation entry was “deficiency of hepatic accumulation”, the tumor retention entry is reported as “exceeding 48 h” and the “tumor targeting capability compared with ICG” value is listed as “stronger”.
